Source: patent US20050215548A1 (Cyclacel Limited, priority 2002, published 2005)

target: T1, HDM2 (Homo sapiens, UniProt Q00987); experiment: Fluorescence polarisation competitive HDM2 binding assay; details: fluorescence polarisation format; Table 1; read-out: IC50 In vitro competitive HDM2 binding assay
T1 construct: Recombinant HDM2 (1.5 μg per well) in TBS-BSA buffer
Protocol: This was carried out using a 96-well microtiter plate (Costar) format. Recombinant HDM2 (1.5 μg per well) in TBS-BSA buffer (50 mM Tris pH 7.4, 150 mM NaCl, and 0.1% BSA) was incubated for 5 min at room temperature in the presence of serially diluted test compound (in TBS-BSA buffer with a final concentration of 5% DMSO). Fluorescently labelled p53-derived peptide (fluorescein-[…]NH2, 0.2 μM) was added to each well and the plate was incubated at room temperature for 45 min. The fluorescence polarisation (excitation 485 nm, emission 520 nm) of the peptide was measured. IC50 values were calculated from dose-response curves.
The fluorescence polarisation competitive HDM2 binding assay described in Example 3 was used. Furthermore, the anti-proliferative potency of the compounds against three human tumour cell lines with different genetic make-up was also determined. […] The cell lines used were as follows: AGS, gastric adenocarcinoma, wild-type p53; H1299, large cell lung carcinoma, p53 null, low HDM2; SJSA-1, primitive multipotential bone sarcoma, wild-type p53, overexpressed HDM2.

T1 sequence (Q00987 whole entry): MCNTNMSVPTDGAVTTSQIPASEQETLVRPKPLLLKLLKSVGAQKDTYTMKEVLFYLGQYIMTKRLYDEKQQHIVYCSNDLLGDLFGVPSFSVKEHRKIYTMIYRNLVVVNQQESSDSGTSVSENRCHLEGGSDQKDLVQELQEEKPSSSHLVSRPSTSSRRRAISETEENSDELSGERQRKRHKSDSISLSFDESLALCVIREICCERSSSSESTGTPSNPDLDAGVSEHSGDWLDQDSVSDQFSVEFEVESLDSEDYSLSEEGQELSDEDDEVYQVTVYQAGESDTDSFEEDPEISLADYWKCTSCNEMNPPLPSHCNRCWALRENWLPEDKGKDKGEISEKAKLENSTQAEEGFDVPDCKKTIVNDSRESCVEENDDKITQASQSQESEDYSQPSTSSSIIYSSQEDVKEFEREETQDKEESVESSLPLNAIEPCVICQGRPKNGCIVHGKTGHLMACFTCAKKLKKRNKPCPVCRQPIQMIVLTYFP

Row | SMILES | IC50
1 | O=S(=O)(Nc1cc(C(F)(F)F)cc(C(F)(F)F)c1)c1ccc2c(c1)OCCO2 [Compound 86, 2,3-Dihydro-benzo[1,4]dioxine-6-sulfonic acid (3,5-bis-trifluoromethyl-phenyl)-amide] | 375 ± 39 µM
2 | O=S(=O)(Nc1cc(C(F)(F)F)cc(C(F)(F)F)c1)c1ccc(-n2cccn2)cc1 [Compound 89, N-(3,5-Bis-trifluoromethyl-phenyl)-4-pyrazol-1-yl-benzenesulfonamide] | 275 ± 45 µM
3 | Cc1[nH]c(C(=O)O)c(C)c1S(=O)(=O)Nc1cc(C(F)(F)F)cc(C(F)(F)F)c1 [Compound 91, 4-(3,5-Bis-trifluoromethyl-phenylsulfamoyl)-3,5-dimethyl-1H-pyrrole-2-carboxylic acid] | 481 µM
4 | O=S(=O)(Nc1cc(C(F)(F)F)cc(C(F)(F)F)c1)c1cc(Cl)c(O)c(Cl)c1 [Compound 95, N-(3,5-Bis-trifluoromethyl-phenyl)-3,5-dichloro-4-hydroxy-benzenesulfonamide] | 243 ± 11 µM
5 | O=[N+]([O-])c1ccc(S(=O)(=O)Nc2cc(C(F)(F)F)cc(C(F)(F)F)c2)cc1 [Compound 98, N-(3,5-Bis-trifluoromethyl-phenyl)-4-nitro-benzenesulfonamide] | 207 µM
6 | Nc1ccc(S(=O)(=O)Nc2cc(C(F)(F)F)cc(C(F)(F)F)c2)cc1Cl [Compound 99, 4-Amino-N-(3,5-bis-trifluoromethyl-phenyl)-3-chloro-benzenesulfonamide] | 248 ± 29 µM
7 | O=S(=O)(Nc1cc(Cl)cc(Cl)c1)c1cc(Cl)c(O)c(Cl)c1 [Compound 101, 3,5-Dichloro-N-(3,5-dichloro-phenyl)-4-hydroxy-benzenesulfonamide] | 299 ± 31 µM
8 | CC(=O)N1CCN(c2cc(S(=O)(=O)Nc3cc(C(F)(F)F)cc(C(F)(F)F)c3)ccc2[N+](=O)[O-])CC1 [Compound 106, 3-(4-Acetyl-piperazin-1-yl)-N-(3,5-bis-trifluoromethyl-phenyl)-4-nitro-benzenesulfonamide] | 241 ± 158 µM
9 | O=[N+]([O-])c1ccccc1S(=O)(=O)Nc1cc(C(F)(F)F)cc(C(F)(F)F)c1 [Compound 107, N-(3,5-Bis-trifluoromethyl-phenyl)-2-nitro-benzenesulfonamide] | 401 ± 46 µM
10 | O=C(O)c1cccc(S(=O)(=O)Nc2cc(C(F)(F)F)cc(C(F)(F)F)c2)c1 [Compound 108, 3-(3,5-Bis-trifluoromethyl-phenylsulfamoyl)-benzoic acid] | 451 ± 118 µM
11 | O=S(=O)(NCc1ccc(C(F)(F)F)cc1)c1cc(Cl)c(O)c(Cl)c1 [Compound 110, 3,5-Dichloro-4-hydroxy-N-(4-trifluoromethyl-benzyl)-benzenesulfonamide] | 242 µM
12 | O=S(=O)(NCCc1c[nH]c2ccccc12)c1cc(Cl)c(O)c(Cl)c1 [Compound 111, 3,5-Dichloro-4-hydroxy-N-[2-(1H-indol-3-yl)-ethyl]-benzenesulfonamide] | 448 µM
13 | O=S(=O)(Nc1cc(C(F)(F)F)cc(C(F)(F)F)c1)c1cc(Br)c(Cl)s1 [Compound 114, 4-Bromo-5-chloro-thiophene-2-sulfonic acid (3,5-bis-trifluoromethyl-phenyl)-amide] | 293 µM
14 | O=S(=O)(Nc1cc(C(F)(F)F)cc(C(F)(F)F)c1)c1ccc(S(=O)(=O)c2ccccc2)s1 [Compound 117, 5-Benzenesulfonyl-thiophene-2-sulfonic acid (3,5-bis-trifluoromethyl-phenyl)-amide] | 147 µM
15 | O=S(=O)(Nc1cc(C(F)(F)F)cc(C(F)(F)F)c1)c1cc2ccccc2s1 [Compound 120, Benzo[b]thiophene-2-sulfonic acid (3,5-bis-trifluoromethyl-phenyl)-amide] | 193 ± 12 µM
16 | O=S(=O)(Nc1cc(C(F)(F)F)cc(C(F)(F)F)c1)c1ccc2nsnc2c1 [Compound 122, Benzo[1,2,5]thiadiazole-5-sulfonic acid (3,5-bis-trifluoromethyl-phenyl)-amide] | 165 ± 8 µM
17 | O=S(=O)(Nc1cc(C(F)(F)F)cc(C(F)(F)F)c1)c1ccc(-c2ccccn2)s1 [Compound 124, 5-Pyridin-2-yl-thiophene-2-sulfonic acid (3,5-bis-trifluoromethyl-phenyl)-amide] | 265 ± 64 µM

The remaining lines, values ahead:

Row | IC50 | SMILES
18 | 212 ± 27 µM | O=S(=O)(Nc1ccc(Cl)cc1)c1ccc(Oc2ccccc2)nc1 [Compound 87, 6-Phenoxy-pyridine-3-sulfonic acid (4-chloro-phenyl)-amide]
19 | 174 ± 11 µM | Cc1c(S(=O)(=O)Nc2ccc(Cl)c([N+](=O)[O-])c2)sc2ccc(Cl)cc12 [Compound 88, 5-Chloro-3-methyl-benzo[b]thiophene-2-sulfonic acid (4-chloro-3-nitro-phenyl)-amide]
20 | 331 ± 52 µM | CCOC(=O)c1[nH]c(C)c(S(=O)(=O)Nc2ccc(Cl)cc2)c1C [Compound 90, 4-(4-Chloro-phenylsulfamoyl)-3,5-dimethyl-1H-pyrrole-2-carboxylic acid ethyl ester]
21 | 418 µM | Cc1[nH]c(C(=O)O)c(C)c1S(=O)(=O)Nc1ccc(Cl)cc1 [Compound 92, 4-(4-Chloro-phenylsulfamoyl)-3,5-dimethyl-1H-pyrrole-2-carboxylic acid]
22 | 373 ± 373 µM | CCOC(=O)c1sc(S(=O)(=O)Nc2ccc(Cl)cc2)nc1C [Compound 93, 2-(4-Chloro-phenylsulfamoyl)-4-methyl-thiazole-5-carboxylic acid ethyl ester]
23 | 227 ± 7 µM | O=S(=O)(Nc1ccc(Cl)cc1)c1cc(Cl)c(O)c(Cl)c1 [Compound 94, 3,5-Dichloro-N-(4-chloro-phenyl)-4-hydroxy-benzenesulfonamide]
24 | 449 ± 51 µM | O=S(=O)(Nc1ccc(C(F)(F)F)cc1)c1cc(Cl)c(O)c(Cl)c1 [Compound 96, 3,5-Dichloro-4-hydroxy-N-(4-trifluoromethyl-phenyl)-benzenesulfonamide]
25 | 394 ± 13 µM | O=[N+]([O-])c1ccc(S(=O)(=O)Nc2ccc(Cl)cc2)cc1 [Compound 97, N-(4-Chloro-phenyl)-4-nitro-benzene-sulfonamide]
26 | 431 ± 5 µM | O=[N+]([O-])c1cccc(S(=O)(=O)Nc2ccc(C(F)(F)F)cc2)c1 [Compound 100, 3-Nitro-N-(4-trifluoromethyl-phenyl)-benzenesulfonamide]
27 | 467 ± 35 µM | Nc1ccc(S(=O)(=O)Nc2ccc(Cl)cc2)cc1Cl [Compound 102, 4-Amino-3-chloro-N-(4-chloro-phenyl)-benzenesulfonamide]
28 | 408 ± 18 µM | COc1ccc(S(=O)(=O)Nc2ccc(Cl)cc2)cc1Cl [Compound 103, 3-Chloro-N-(4-chloro-phenyl)-4-methoxy-benzenesulfonamide]
29 | 375 ± 41 µM | O=S(=O)(NCc1ccc(Cl)cc1)c1cc(Cl)c(O)c(Cl)c1 [Compound 109, 3,5-Dichloro-N-(4-chloro-benzyl)-4-hydroxy-benzenesulfonamide]
30 | 194 µM | O=S(=O)(Nc1cc(Cl)cc(Cl)c1)c1cc(Br)c(Br)s1 [Compound 112, 4,5-Dibromo-thiophene-2-sulfonic acid (3,5-dichloro-phenyl)-amide]
31 | 246 µM | O=S(=O)(Nc1cc(Cl)cc(Cl)c1)c1ccc(-c2ncco2)cc1 [Compound 113, N-(3,5-Dichloro-phenyl)-4-oxazol-2-yl-benzenesulfonamide]
32 | 431 µM | O=S(=O)(Nc1cc(Cl)cc(Cl)c1)c1cc(Br)c(Cl)s1 [Compound 115, 4-Bromo-5-chloro-thiophene-2-sulfonic acid (3,5-dichloro-phenyl)-amide]
33 | 152 µM | O=S(=O)(Nc1ccc(C(F)(F)F)cc1)c1ccc(Br)s1 [Compound 116, 5-Bromo-thiophene-2-sulfonic acid (4-trifluoromethyl-phenyl)-amide]
34 | 305 µM | O=S(=O)(Nc1ccc(Cl)cc1Cl)c1ccc(S(=O)(=O)c2ccccc2)s1 [Compound 118, 5-Benzenesulfonyl-thiophene-2-sulfonic acid (2,4-dichloro-phenyl)-amide]
35 | 106 ± 13 µM | Cc1c(S(=O)(=O)Nc2cc(C(F)(F)F)cc(C(F)(F)F)c2)sc2ccc(Cl)cc12 [Compound 119, 5-Chloro-3-methyl-benzo[b]thiophene-2-sulfonic acid (3,5-bis-trifluoromethyl-phenyl)-amide]
36 | 314 ± 29 µM | O=S(=O)(Nc1ccc(Cl)cc1)c1ccc2nsnc2c1 [Compound 121, Benzo[1,2,5]thiadiazole-5-sulfonic acid (4-chloro-phenyl)-amide]
37 | 329 ± 42 µM | O=S(=O)(Nc1ccc(C(F)(F)F)cc1)c1ccc2nsnc2c1 [Compound 123, Benzo[1,2,5]thiadiazole-5-sulfonic acid (4-trifluoromethyl-phenyl)-amide]
38 | 198 ± 17 µM | O=S(=O)(Nc1ccc(Cl)cc1)c1cc(Br)c(Br)s1 [Compound 125, 4,5-Dibromo-thiophene-2-sulfonic acid (4-chloro-phenyl)-amide]
39 | 163 ± 27 µM | O=S(=O)(Nc1ccc(C(F)(F)F)cc1)c1cc(Br)c(Br)s1 [Compound 126, 4,5-Dibromo-thiophene-2-sulfonic acid (4-trifluoromethyl-phenyl)-amide]
40 | 325 ± 24 µM | O=S(=O)(NCc1ccc(F)cc1)c1cc(Cl)c(O)c(Cl)c1 [Compound 127, 3,5-Dichloro-N-(4-fluoro-benzyl)-4-hydroxy-benzenesulfonamide]
41 | 64 ± 1 µM | O=[N+]([O-])c1cc(S(=O)(=O)Nc2ccc(Cl)cc2)sc1N1CCCC(O)C1 (centres unmarked) [Compound 130, 5-(3-Hydroxy-piperidin-1-yl)-4-nitro-thiophene-2-sulfonic acid (4-chloro-phenyl)-amide]
